Results published in patent publication US20190298722A1, “USE OF AN INHIBITOR OF THE DE NOVO SYNTHESIS OF PURINES, IN THE TREATMENT OF ADENYLOSUCCINATE LYASE DEFICIENCY” (ASSISTANCE PUBLIQUE-HOPITAUX DE PARIS, priority 2016, published 2019).

Tests used:
Type in all cases: in vivo, human
[1] = tested on: patients with ADSL deficiency; test: Vineland scale (adaptive skills) during allopurinol treatment; parameters: Vineland standardized score, Communication / Vineland standardized score, Daily life / Vineland standardized score, Social skills / Vineland standardized score, Motor skills / Vineland standardized score, TOTAL: scale not given here
Procedure: (§1) Clinical characterization of the patients was carried out before starting treatment (T1) in accordance with the ICD 10 classification, using standardized tools: • A semi-structured interview by means of the Autism Diagnostic Interview (ADI-R): this is a semi-structured interview intended to classify symptoms reported by parents in the domain of communication, social interaction, restricted and stereotyped behaviours or sensory issues. Scores are established for the current period and, if necessary, for the period when the difficulties were most serious, between the ages of 4 and 5 years. A score is established for each of the three domains based on responses provided by the parents and the judgement of the interviewer. Scores above the thresholds in the 3 domains support a diagnosis of autism, and in one or two domains support a diagnosis of a pervasive developmental disorder. Scores below the thresholds in the 3 domains make it possible to rule out diagnosis of an autism spectrum disorder if the ADI-R results converge with the clinical assessment of the child. • A semi-structured interview using the Vineland 2 scale: this is a semi-structured interview which makes it possible to assess the adaptive skills of the child in the domains of communication, daily life, social skills and motor skills. From the description of their child's daily living skills, equivalent developmental ages and standardized scores are calculated, making it possible to describe the developmental and adaptive profile of the child. • A developmental assessment using the Psychoeducational Profile (PEP 3): this is a direct assessment of the skills of the child in several domains of their development, particularly suited to children who display a developmental disability. Six domains of development are assessed: verbal and preverbal cognition (VPC), expressive language (EL), receptive language (RL), gross motor skills (GM), fine motor skills (FM) and visual-motor imitation (VMI). The results are expressed in terms of equivalent developmental age and emerging score, when the exercises are partially completed. The number of emerging skills, or the difference between the actual ages and the emerging scores, are evidence of the development potential of the children. • The Conners scale: this is an assessment scale intended to quantify the symptoms of inattentiveness, agitation, impulsiveness, anxiety, somatization, behavioural difficulties and learning difficulties. There are several versions of the questionnaire, one for parents, the other for teachers or professionals. The scoring makes it possible to obtain an overall standardized score, considered to be significant when it is greater than 1.5.
(§2) Clinical re-assessments were carried out 6 months and one year after treatment with allopurinol and compared to the first assessment in the absence of treatment with allopurinol. They comprised: • At 6 months: scoring of the Vineland and Conners scales • At 12 months: scoring of the Vineland and Conners scales and completion of PEP-3.
(§3) Clinical progress at 200 mg of allopurinol was measured for each child based on the Conner and Vineland scale scores before treatment (T1), at 6 months (T2) and at 12 months of treatment (T3) with regard to behaviour and function.

[2] = tested on: patients with ADSL deficiency; test: Urinary assay of SAICAr and S-Ado by HPLC with UV detection (HPLC-DAD); conditions: 3 patients, after 6 and 12 months of treatment with allopurinol
Procedure: SAICAr and S-Ado metabolites in urine were assayed using HPLC-DAD and HPLC coupled with tandem mass spectrometry (HPLC-MS/MS) according to the techniques recently described (Ceballos-Picot et al. 2015; Zikanova et al. 2014).

[3] = tested on: patients with ADSL deficiency; test: Psychoeducational Profile (PEP3) developmental assessment during allopurinol treatment
Procedure: as §1, §2
Developmental progress was measured by means of developmental ages on the PEP3 scale before treatment (T1) and after a year of treatment (T3).

[4] = tested on: patients with ADSL deficiency; test: Conners scale (parents and teachers) during allopurinol treatment
Procedure: as §1, §2, §3

[5] = Patient 1, T2 (6 months), T1 69
[6] = Patient 1, T3 (12 months), T1 69
[7] = Patient 1, T3 (12 months), T1 1.7
[8] = Patient 1, T3 (12 months), T1 2.2
[9] = Patient 2, T3 (12 months), T1 2.3
[10] = Patient 3, T3 (12 months), T1 1.4

O=c1ncnc2[nH][nH]cc1-2 [allopurinol, 1,2-dihydro-4H-pyrazolo[3,4-d]pyrimidin-4-one]
standardized scores on the Vineland scale in all domains ([1]; 3 patients, during treatment, more pronounced for communication): improvement
Vineland standardized score, Communication ([1]; Patient 1, T2 (6 months), T1 67): 65
Vineland standardized score, Daily life [1, 5]: 71
Vineland standardized score, TOTAL [1, 5]: 76
Vineland standardized score, Social skills ([1]; Patient 1, T2 (6 months), T1 73): 66
Vineland standardized score, Communication ([1]; Patient 1, T3 (12 months), T1 67): 75
Vineland standardized score, Daily life [1, 6]: 74
Vineland standardized score, TOTAL [1, 6]: 74
Vineland standardized score, Social skills ([1]; Patient 1, T3 (12 months), T1 73): 75
Vineland standardized score, Communication ([1]; Patient 2, T2 (6 months), T1 57): 72
Vineland standardized score, Motor skills ([1]; Patient 2, T2 (6 months), T1 61): 67
Vineland standardized score, TOTAL ([1]; Patient 2, T2 (6 months), T1 69): 79
Vineland standardized score, Social skills ([1]; Patient 2, T2 (6 months), T1 79): 83
Vineland standardized score, Daily life ([1]; Patient 2, T2 (6 months), T1 81): 87
Vineland standardized score, Communication ([1]; Patient 2, T3 (12 months), T1 57): 75
Vineland standardized score, Motor skills ([1]; Patient 2, T3 (12 months), T1 61): 85
Vineland standardized score, TOTAL ([1]; Patient 2, T3 (12 months), T1 69): 82
Vineland standardized score, Social skills ([1]; Patient 2, T3 (12 months), T1 79): 83
Vineland standardized score, Daily life ([1]; Patient 2, T3 (12 months), T1 81): 87
Vineland standardized score, Communication ([1]; Patient 3, T2 (6 months), T1 65): 69
Vineland standardized score, Motor skills ([1]; Patient 3, T2 (6 months), T1 67): 70
Vineland standardized score, TOTAL ([1]; Patient 3, T2 (6 months), T1 71): 77
Vineland standardized score, Daily life ([1]; Patient 3, T2 (6 months), T1 75): 87
Vineland standardized score, Social skills ([1]; Patient 3, T2 (6 months), T1 76): 83
Vineland standardized score, Communication ([1]; Patient 3, T3 (12 months), T1 65): 74
Vineland standardized score, Motor skills ([1]; Patient 3, T3 (12 months), T1 67): 72
Vineland standardized score, TOTAL ([1]; Patient 3, T3 (12 months), T1 71): 80
Vineland standardized score, Daily life ([1]; Patient 3, T3 (12 months), T1 75): 87
Vineland standardized score, Social skills ([1]; Patient 3, T3 (12 months), T1 76): 88
SAICAr and S-Ado in urine (HPLC-DAD) [2]: significant reduction
equivalent developmental ages ([3]; 3 patients, during treatment, rate remains slow with respect to chronological age): progression
PEP3 developmental age, EL (expressive language) [3, 7]: 1.8
PEP3 developmental age, RL (receptive language) [3, 7]: 2.3
PEP3 developmental age, GM [3, 8]: 2.8
PEP3 developmental age, FM ([3]; Patient 1, T3 (12 months), T1 2.5): 2.8
PEP3 developmental age, VPC (verbal and preverbal cognition) ([3]; Patient 1, T3 (12 months), T1 2.6, figures read as years.months per Table 2): 3
PEP3 developmental age, VMI (visual-motor imitation) ([3]; Patient 1, T3 (12 months), T1 2.8): 3.3
PEP3 developmental age, EL (expressive language) ([3]; Patient 2, T3 (12 months), T1 1.3): 1.7
PEP3 developmental age, RL (receptive language) ([3]; Patient 2, T3 (12 months), T1 1.8): 2.7
PEP3 developmental age, GM ([3]; Patient 2, T3 (12 months), T1 1.9): 3.3
PEP3 developmental age, FM [3, 9]: 4.0
PEP3 developmental age, VPC (verbal and preverbal cognition) [3, 9]: 2.3
PEP3 developmental age, VMI (visual-motor imitation) ([3]; Patient 2, T3 (12 months), T1 6): 6.0
PEP3 developmental age, EL (expressive language) [3, 10]: 2.3
PEP3 developmental age, GM [3, 10]: 3.4
PEP3 developmental age, RL (receptive language) ([3]; Patient 3, T3 (12 months), T1 1.5): 2
PEP3 developmental age, VPC (verbal and preverbal cognition) ([3]; Patient 3, T3 (12 months), T1 1.6): 2.4
PEP3 developmental age, FM ([3]; Patient 3, T3 (12 months), T1 2): 3.6
PEP3 developmental age, VMI (visual-motor imitation) ([3]; Patient 3, T3 (12 months), T1 2.1): 3.3
PEP3 developmental age, fine motor skills and receptive language ([3]; patient P2, T1 to T3): approximately a year
PEP3 developmental age, gross motor skills ([3]; patient P2, T1 to T3): improvement of more than a year
PEP3 developmental level, expressive language and preverbal and verbal cognition ([3]; patient P3, T1 to T3): gain of more than a year
overall clinical outcome ([4]; 3 patients during treatment with allopurinol, more significant in the youngest patient (P3)): clinical improvement
Conners v-score, scale completed by the parents ([4]; 3 patients, T1, T2, T3): reduction in the v-score
scores on the Conners scale (parents and teachers) ([4]; 3 patients, during treatment): reduction
Conners score, Teachers ([4]; Patient 1, T2 (6 months), T1 2.2, significant when >1.5): 1.5
Conners score, Parents ([4]; Patient 1, T2 (6 months), T1 2.3): 1.6
Conners score, Teachers [4, 8]: 1
Conners score, Parents ([4]; Patient 1, T3 (12 months), T1 2.3): 1.8
Conners score, Parents ([4]; Patient 2, T2 (6 months), T1 1): 0.8
Conners score, Teachers ([4]; Patient 2, T2 (6 months), T1 2): 1.5
Conners score, Parents ([4]; Patient 2, T3 (12 months), T1 1): 0.5
Conners score, Teachers ([4]; Patient 2, T3 (12 months), T1 2): 1.4
Conners score, Parents ([4]; Patient 3, T2 (6 months), T1 1.7): 1.2
Conners score, Teachers ([4]; Patient 3, T2 (6 months), T1 1.9): 1.8
Conners score, Parents ([4]; Patient 3, T3 (12 months), T1 1.7): 1
Conners score, Teachers ([4]; Patient 3, T3 (12 months), T1 1.9): 1
hyperactivity reported by the parents and teachers ([4]; three children, allopurinol 200 mg/d): reduction in hyperactivity
behavioural disorders ([4]; three children, allopurinol 200 mg/d, after 6 and 12 months): substantial improvement
behavioural disorders assessed using the Conners and Vineland scales ([4]; three children, allopurinol 200 mg/d, after 6 months): substantial improvement
